Data on 19 molecules can be found in patent publication US20050271676A1, “Inducing cellular immune responses to human immunodeficiency virus-1 using peptide and nucleic acid compositions” (Epimmune Inc., priority 1993, published 2005).

One may read the IC50 as the concentration needed to halve the response being measured.

No end group written: not given here.

One assay has as its target HLA-A*0202 (Homo sapiens, UniProt P04439, D140Y/D185E/D98H/E176V/E277Q/G131W/G231S/I119L/I121R/I166T/I218V/L180W/L300P/L318F/N151K/N90K/P208A/P217A/Q67R/Q86G/Q94H/R138H/R169H/T345S). Briefly: purified HLA class I binding assay, A*0202.
In a further assay the target is HLA-A*0206 (Homo sapiens, UniProt P04439, D140Y/D185E/D98H/E176V/E277Q/F33Y/G131W/G231S/I119V/I121R/I166T/I218V/L300P/L318F/N151K/N90K/P208A/P217A/Q86G/Q94H/R138H/R169H/T345S). In words: purified HLA class I binding assay, A*0206.
In a further assay the target is HLA-A*6802 (Homo sapiens, UniProt P04439, A269V/D140Y/D185E/E176V/E277Q/E87N/F33Y/G231S/I121R/I166T/I218V/L180W/L300P/L318F/N151K/P208A/P217A/Q86R/R138H/R169H/S129P/T345S/V36M). In words: purified HLA class I binding assay, A*6802.
The target of another assay is HLA-A*0203 (Homo sapiens, UniProt P04439, A173T/D140Y/D185E/D98H/E277Q/G131W/G231S/I119V/I121R/I166T/I218V/L180W/L300P/L318F/N151K/N90K/P208A/P217A/Q86G/Q94H/R138H/R169H/T345S). Briefly: purified HLA class I binding assay, A*0203.
In the next assay the target is HLA-A*0201 (Homo sapiens, UniProt P04439, D140Y/D185E/D98H/E176V/E277Q/G131W/G231S/I119V/I121R/I166T/I218V/L300P/L318F/N151K/N90K/P208A/P217A/Q86G/Q94H/R138H/R169H/T345S). Briefly: purified HLA class I binding assay, A*0201.
Another assay deals with HLA-A*2402 (Homo sapiens, UniProt P04439, D101N/D140Y/D185E/E176V/E190D/F33S/G103R/G107R/I119L/I121M/I306V/K335N/L105A/L180Q/L300P/N151K/N90K/Q86E/Q94H/R106L/R138H/R89G/T104I/T345S/V100E/W191G/Y123F). In words: purified HLA class I binding assay, A*2402. The conditions noted are these: for A*2401 (binding information): unit not given.
Setting [1] is: HIV A24 supermotif peptides, Table X, A*2401.
Where [2] appears, read: HIV A24 motif peptides, purified HLA-A24 molecule.
Where [3] appears, read: Table VIII, HIV A02 Super Motif Peptides with Binding Information, unit not given.
Setting [4] is: HIV A02 super motif peptides, Table VIII, unit not given.
[5] abbreviates: HIV A24 motif peptides, binding value for purified HLA-A24 molecule, A*2401.

As for `CC(C)C[C@H](NC(=O)[C@H](CCCCN)NC(=O)[C@H](Cc1ccccc1)NC(=O)[C@H](CS)NC(=O)[C@H](Cc1c[nH]c2ccccc12)NC(=O)CNC(=O)[C@H](Cc1ccccc1)NC(=O)[C@@H](NC(=O)[C@H](CC(C)C)NC(=O)[C@@H]1CCCN1)[C@@H](C)O)C(=O)O` [25.0142], the IC50 at HLA-A*0202 was 741 nM; at HLA-A*0206, 3700 nM; at HLA-A*6802 it was 47.6 nM.

Turning to `CC[C@H](C)[C@H](NC(=O)[C@H](CC(=O)O)NC(=O)[C@@H](NC(=O)[C@H](C)NC(=O)[C@H](CC(N)=O)NC(=O)[C@H](CC(C)C)NC(=O)[C@H](CC(C)C)NC(=O)[C@@H](N)CO)[C@@H](C)O)C(=O)N[C@@H](C)C(=O)N[C@H](C(=O)O)C(C)C` [Peptide 1211.09], the results for the IC50 at HLA-A*0202, on HLA-A*0206 and at HLA-A*6802 were 1300 nM, 28.5 nM and 5480 nM, respectively.

`CC[C@H](C)[C@H](NC(=O)[C@@H]1CCCN1C(=O)[C@@H]1CCCN1C(=O)[C@H](CC(N)=O)NC(=O)[C@H](CC(N)=O)NC(=O)[C@@H](NC(=O)[C@@H](N)CCSC)[C@@H](C)O)C(=O)N1CCC[C@H]1C(=O)N[C@H](C(=O)O)C(C)C` [Peptide 1261.03]: the IC50 at HLA-A*0202 was determined as 7170 nM; on HLA-A*6802 it was 12.1 nM.

`CC[C@H](C)[C@H](NC(=O)[C@H](C)N)C(=O)N[C@H](C(=O)N[C@@H](CCCNC(=N)N)C(=O)N[C@H](C(=O)N[C@@H](CC(C)C)C(=O)N[C@@H](CCC(N)=O)C(=O)N[C@@H](CCC(N)=O)C(=O)N[C@@H](CC(C)C)C(=O)O)[C@@H](C)CC)[C@@H](C)CC` [Peptide 1261.11]: the values for the IC50 on HLA-A*0202, on HLA-A*0206 and on HLA-A*6802 were 22.6 nM, 38.5 nM and 548 nM, respectively.

With `CC(C)C[C@H](NC(=O)[C@H](CCCCN)NC(=O)[C@H](Cc1ccccc1)NC(=O)[C@H](CS)NC(=O)[C@H](Cc1c[nH]c2ccccc12)NC(=O)CNC(=O)[C@H](Cc1ccccc1)NC(=O)[C@@H](NC(=O)[C@@H](N)CC(C)C)[C@@H](C)O)C(=O)N[C@H](C(=O)O)C(C)C` [Peptide 1261.14], the results for the IC50 at HLA-A*0202 and on HLA-A*6802 were 48.9 nM and 6.2 nM, respectively.

Consider `CSCC[C@H](N)C(=O)N[C@@H](C)C(=O)N[C@@H](CO)C(=O)N[C@@H](CC(=O)O)C(=O)N[C@@H](Cc1ccccc1)C(=O)N[C@@H](CC(N)=O)C(=O)N[C@@H](CC(C)C)C(=O)N1CCC[C@H]1C(=O)N1CCC[C@H]1C(=O)N[C@H](C(=O)O)C(C)C` [Peptide 1261.15], for which the IC50 at HLA-A*0202 was found to be 22.6 nM; at HLA-A*0206 it was 33.6 nM; on HLA-A*0203, 55.6 nM; on HLA-A*6802, 18.2 nM.

Regarding FLGAAGSTM [1211.05], the concentration for half-maximal inhibition (IC50) is 3580 nM at HLA-A*0202; 73.5 nM at HLA-A*0201; 4110 nM on HLA-A*0206; 1.5 nM on HLA-A*0203; 66700 nM on HLA-A*6802.

In the case of GYELIIPDKW, the “A*2401 (binding information)” value with HLA-A*2402 (setting [1]) is on record as 0.0001.

Turning to IWQLDCTIIL, the “A*2401 (binding information)” value in the assay with HLA-A*2402 (setting [1]) worked out at 0.0095.

Consider IYQEPIKNL, for which the “A*2401 (binding information)” value with HLA-A*2402 (setting [1]) stood at 0.0520.

As for KMIGGIGGPI, in the assay with HLA-A*2402 (setting [2]), the “A*2401 (binding information)” value is reported as 0.0001.

Turning to LIFGWCFKLV, in the assay with HLA-A*0202 (setting [3]), the “A*0202 binding information” value came to 0.0880. In addition, the “A*0201 (binding information)” value in the assay with HLA-A*0201 (setting [3]) is on record as 0.0170. Also, the “A*0206 binding information” value with HLA-A*0206 (setting [3]) was 0.0640. Besides, in the assay with HLA-A*0203 (setting [3]), the “A*0203 binding information” value is recorded as 0.0540. In addition, the “A*6802 binding information” value with HLA-A*6802 (setting [3]) came to 6.5000.

PYNEWTLEL [Peptide 25.0128] yielded an IC50 at HLA-A*2402 of 86 nM.

With PYNLWILEL, the “A*2401 (binding information)” value in the assay with HLA-A*2402 (HIV A24 supermotif peptides, A*2401, so probably a relative binding value) is given as 0.1400.

QLLFIIIFRI: in the assay with HLA-A*0202 (setting [4]), the “A*0202 binding” value worked out at 0.0002. For the same molecule, in the assay with HLA-A*0201 (setting [4]), the “A*0201 binding” value stood at 0.0530. Moreover, the “A*0206 binding” value with HLA-A*0206 (setting [4]) is recorded as 0.0023. The “A*0203 binding” value in the assay with HLA-A*0203 (setting [4]) is recorded as 0.0004. For the same molecule, the “A*6802 binding” value with HLA-A*6802 (setting [4]) was determined as 0.0840.

Consider QMAVFIIINF, for which the “A*2401 (binding information)” value with HLA-A*2402 (setting [2]) and with HLA-A*2402 (setting [1]) was 0.0190 throughout.

Take RFAVPGLL: the “A*2401 (binding information)” value with HLA-A*2402 (setting [5]) is 0.0100.

Take VWKEATITLF: in the assay with HLA-A*2402 (setting [5]), the “A*2401 (binding information)” value is recorded as 0.2700.

With WMTNNPPIPV [25.0139], the IC50 is 3070 nM on HLA-A*0202, 98 nM on HLA-A*0201, 16.9 nM on HLA-A*0203 and 2220 nM at HLA-A*6802.
